The results in this text go back to US4647693A, “Antibiotics DO-248-A and B and process for preparing the same” (Shionogi & Co., Ltd., priority 1984, dated 1987).

The subject of data set [1] is M. nonchromogenicum KMC3602. The data set can be described thus: MIC, two-fold dilution, Dubos Tween albumin liquid medium. It counts as cell-based. To be noted: 336 h, read-out: minimal inhibitory concentration (MIC).
A further data set has as its system M. xenopi KMC2301. The description is as above. The following applies: Mycobacterium xenopi. The format is cell-based.
A further data set concerns M. szulgai KMC2401. The data set is described as above. It counts as cell-based. The following applies: 336 h, read-out: minimal inhibitory concentration (MIC).
A further data set deals with M. scrofulaceum KMC2102. The data set is described as above. It counts as cell-based. The following applies: Mycobacterium scrofulaceum, read-out: minimal inhibitory concentration (MIC).
Another data set relates to M. fortuitum KMC4101. The description is as above. The format is cell-based. To be noted: Mycolicibacterium fortuitum, read-out: minimal inhibitory concentration (MIC).
Data set [2] concerns M. avium-intracellulare clinical isolated strain 16. The data set is described as above. The format is cell-based. To be noted: 336 h, read-out: minimal inhibitory concentration (MIC).
The next data set relates to M. bovis BCG. Put plainly: microbe, parasite or virus in culture. The format is cell-based. The following applies: Mycobacterium tuberculosis variant bovis BCG, 336 h, read-out: minimal inhibitory concentration (MIC).
Data set [3] concerns fast-acid bacteria including tubercle bacillus. Put plainly: Antibacterial activity against fast-acid (acid-fast) bacteria, in words. The format is cell-based. The following applies: for antibacterial activity against fast-acid (acid-fast) bacteria: in words. The procedure:
(§1) Fast-acid bacillus (0.01 mg) shown in Table 1 was inoculated into 2.0 ml of Dubos Tween albumin liquid medium and the minimal inhibitory concentration (MIC, μg/ml) of DO-248-A (Compound A), kanamycin (KM) and rifampicin (RFP) was measured by two-fold dilution method. The incubation temperature for Mycobacterium marinum was 28° C. and that for all other microorganisms was 37° C. The judgement was made generally 2 weeks later but 1 week later on M. furtuitum and M. chelonei and 5 weeks later on M. xenopi.

The test system of the next data set is M. simiae KMC1302. Put plainly: MIC, two-fold dilution, Dubos Tween albumin liquid medium. It counts as cell-based. To be noted: 336 h, read-out: minimal inhibitory concentration (MIC).
The subject of data set [4] is M. intracellulare KMC3209. The description is as above. The format is cell-based. To be noted: Mycobacterium intracellulare, read-out: minimal inhibitory concentration (MIC).
The subject of a further data set is M. tuberculosis H37Rv. The description is as above. It counts as cell-based. The following applies: Mycobacterium tuberculosis, 336 h, 37° C., 2 weeks, read-out: minimal inhibitory concentration (MIC). The protocol: as §1
A further data set is described as follows: Solubility. It counts as physicochemical.
Data set [5] concerns M. aviumintracellulare, a causative microorganism of refractory atypical fast-acid disease. Put plainly: Comparative antibacterial activity, in words. It counts as cell-based. The following applies: for activity against the pathogenic bacterium of atypical fast-acid bacterium disease relative to kanamycin: compared with kanamycin.
A further data set deals with M. kansasii KMC1101. The data set can be described thus: MIC, two-fold dilution, Dubos Tween albumin liquid medium. The following applies: Mycobacterium kansasii, read-out: minimal inhibitory concentration (MIC). It counts as cell-based.
A further data set has as its system M. avium KMC3101. The data set is described as above. The format is cell-based. To be noted: Mycobacterium avium, read-out: minimal inhibitory concentration (MIC).
The subject of data set [6] is rifanpicin-resistant strains. Put plainly: Antibacterial activity against resistant strains, in words. The format is cell-based. The procedure:
as §1

Data set [7] relates to kanamycin-resistant strains. The data set is described as above. The format is cell-based. The procedure: as §1
The test system of the next data set is M. chelonei KMC4201. Put plainly: MIC, two-fold dilution, Dubos Tween albumin liquid medium. It counts as cell-based. The following applies: read-out: minimal inhibitory concentration (MIC).
A further data set has as its system M. gordonae KMC2201. The data set is described as above. The format is cell-based. To be noted: Mycobacterium gordonae, read-out: minimal inhibitory concentration (MIC).
The mark [8] stands for this setting: M. nonchromogenicum KMC3602, 37° C., 2 weeks.
The mark [9] stands for this setting: M. xenopi KMC2301, 37° C., 5 weeks, read-out: minimal inhibitory concentration (MIC).
Where [10] appears, read: M. szulgai KMC2401, 37° C., 2 weeks.
The mark [11] stands for this setting: 336 h, M. scrofulaceum KMC2102, 37° C., 2 weeks.
Where [12] appears, read: 168 h, M. fortuitum KMC4101, 37° C., 1 week.
Where [13] appears, read: M. avium-intracellulare clinical isolated strain 16, 37° C., 2 weeks.
The mark [14] stands for this setting: M. simiae KMC1302, 37° C., 2 weeks.
Where [15] appears, read: 336 h, M. intracellulare KMC3209, 37° C., 2 weeks.
Where [16] appears, read: 336 h, M. kansasii KMC1101, 37° C., 2 weeks.
Where [17] appears, read: 336 h, M. avium KMC3101, 37° C., 2 weeks.
[18] abbreviates: 168 h, M. chelonei KMC4201, 37° C., 1 week.
Where [19] appears, read: 336 h, M. gordonae KMC2201, 37° C., 2 weeks.

Values after ≈ are worked out from the molar mass of the structure shown. “Also recorded” adds a separate entry of the source. Read-outs that look alike come from different tables or passages of the source. Bounds are passed on as bounds.

For `CC(C)c1c(O)cc(C(NC(=N)N)C(=O)NCC(=O)O)cc1O` (stereo not drawn) [DO-248-A, N-(α-guanidino-3,5-dihydroxy-4-isopropylphenylacetyl)glycine], the MIC in data set [1] (setting [8]) is 12.5 µg/mL (≈ 38.5 µM); in the data set with M. xenopi KMC2301 (setting [9]) it was 0.39 µg/mL (≈ 1.2 µM); with M. szulgai KMC2401 (setting [10]) it was 3.13 µg/mL (≈ 9.65 µM); in the data set with M. scrofulaceum KMC2102 (setting [11]), 0.2 µg/mL (≈ 0.617 µM); in the data set with M. fortuitum KMC4101 (setting [12]), more than 25 µg/mL; in data set [2] (setting [13]), 0.1 µg/mL (≈ 0.308 µM). Besides, the MIC turned out to be 0.05 µg/mL (≈ 0.154 µM) in the data set on M. bovis BCG; 6.25 µg/mL (≈ 19.3 µM) with M. simiae KMC1302 (setting [14]); 0.025 µg/mL (≈ 0.0771 µM) in data set [4] (setting [15]); 0.05 µg/mL (≈ 0.154 µM) in the data set with M. tuberculosis H37Rv; 0.00313 µg/mL (≈ 0.00965 µM) with M. kansasii KMC1101 (setting [16]); 0.78 µg/mL (≈ 2.4 µM) in the data set on M. avium KMC3101 (setting [17]). For the same compound, the MIC in the data set on M. chelonei KMC4201 (setting [18]) is more than 25 µg/mL; in the data set with M. gordonae KMC2201 (setting [19]), 0.00625 µg/mL (≈ 0.0193 µM). Moreover, the “antibacterial activity against fast-acid (acid-fast) bacteria” value in [3] is on record as “effective; also recorded: have antibacterial activity”. Further, the Solubility entry in “Solubility” (in acetone) was “slightly soluble”; in the data set “Solubility” (in benzene) it was “insoluble”; in the data set “Solubility” (in chloroform), “slightly soluble”; in “Solubility” (in dimethylformamide), “readily soluble”; in the data set “Solubility” (in ethanol), “readily soluble”; in the data set “Solubility” (in ether), “insoluble”. Also, the Solubility entry in the data set “Solubility” (in ethylacetate) is on record as “slightly soluble”; in the data set “Solubility” (in hexane) it was “insoluble”; in “Solubility” (in methanol), “readily soluble”; in the data set “Solubility” (in water) it was “soluble”. In data set [5], the “activity against the pathogenic bacterium of atypical fast-acid bacterium disease relative to kanamycin” value is “more active”. For the same compound, the “effectiveness against M. aviumintracellulare relative to kanamycin and rifanpicin” value in data set [5] (compared with kanamycin and rifanpicin) was “more effective”. The “effectiveness against rifanpicin-resistant strains” value in data set [6] is given as “effective; also recorded: have antibacterial activity”. Moreover, in data set [7], the “effectiveness against kanamycin-resistant strains” value is given as “effective; also recorded: have antibacterial activity”.

For the compound `CCc1c(O)cc(C(NC(=N)N)C(=O)NCC(=O)O)cc1O` (stereo not drawn) [DO-248-B, N-(α-guanidino-3,5-dihydroxy-4-ethylphenylacetyl)glycine], in [3] (compared with DO-248-A), the “effectiveness relative to DO-248-A” value was “as effective as DO-248-A”. For the same compound, the “antibacterial activity against fast-acid (acid-fast) bacteria” value in data set [3] was “effective; also recorded: have antibacterial activity”. Also, the “activity against the pathogenic bacterium of atypical fast-acid bacterium disease relative to kanamycin” value in data set [5] is listed as “more active”. The “effectiveness against rifanpicin-resistant strains” value in [6] is given as “have antibacterial activity”. Also, in data set [7], the “effectiveness against kanamycin-resistant strains” value is on record as “have antibacterial activity”.

Turning to `NC[C@H]1O[C@H](O[C@H]2[C@H](O)[C@@H](O[C@H]3O[C@H](CO)[C@@H](O)[C@H](N)[C@H]3O)[C@H](N)C[C@@H]2N)[C@H](O)[C@@H](O)[C@@H]1O` [KM, kanamycin], the MIC in data set [1] is more than 25 µg/mL; with M. xenopi KMC2301 (KMC2301, read-out: minimal inhibitory concentration (MIC)) it was 0.1 µg/mL (≈ 0.206 µM); in the data set with M. szulgai KMC2401 it was 1.56 µg/mL (≈ 3.22 µM); with M. scrofulaceum KMC2102 (KMC2102, 336 h), 0.0125 µg/mL (≈ 0.0258 µM); with M. fortuitum KMC4101 (KMC4101, 168 h), 25 µg/mL (≈ 51.6 µM); in [2], 6.25 µg/mL (≈ 12.9 µM). For the same compound, the MIC in the data set with M. bovis BCG is 0.00156 µg/mL (≈ 0.00322 µM); with M. simiae KMC1302, 12.5 µg/mL (≈ 25.8 µM); in data set [4] (KMC3209, 336 h), 0.05 µg/mL (≈ 0.103 µM); in the data set with M. tuberculosis H37Rv it was 0.025 µg/mL (≈ 0.0516 µM); in the data set on M. kansasii KMC1101 (KMC1101, 336 h), 6.25 µg/mL (≈ 12.9 µM); in the data set with M. avium KMC3101 (KMC3101, 336 h), 3.13 µg/mL (≈ 6.46 µM). The MIC in the data set on M. chelonei KMC4201 (KMC4201, 168 h) was more than 25 µg/mL; with M. gordonae KMC2201 (KMC2201, 336 h), 0.39 µg/mL (≈ 0.805 µM).

`CO[C@H]1/C=C/O[C@@]2(C)Oc3c(C)c(O)c4c(O)c(c(/C=N/N5CCN(C)CC5)c(O)c4c3C2=O)NC(=O)/C(C)=C\C=C\[C@H](C)[C@H](O)[C@@H](C)[C@@H](O)[C@@H](C)[C@H](OC(C)=O)[C@@H]1C` [RFP, rifampicin]: the MIC stood at 25 µg/mL (≈ 30.4 µM) in data set [1] (setting [8]); 0.00625 µg/mL (≈ 0.00759 µM) in the data set with M. xenopi KMC2301 (setting [9]); 0.025 µg/mL (≈ 0.0304 µM) with M. szulgai KMC2401 (setting [10]); 0.00313 µg/mL (≈ 0.0038 µM) in the data set on M. scrofulaceum KMC2102 (setting [11]); 3.13 µg/mL (≈ 3.8 µM) in the data set on M. fortuitum KMC4101 (setting [12]); 3.13 µg/mL (≈ 3.8 µM) in data set [2] (setting [13]). The MIC was less than 0.001 µg/mL in the data set with M. bovis BCG; more than 25 µg/mL with M. simiae KMC1302 (setting [14]); less than 0.001 µg/mL in data set [4] (setting [15]); less than 0.001 µg/mL in the data set on M. tuberculosis H37Rv; 0.0125 µg/mL (≈ 0.0152 µM) with M. kansasii KMC1101 (setting [16]); 0.2 µg/mL (≈ 0.243 µM) in the data set on M. avium KMC3101 (setting [17]). Further, the MIC was 6.25 µg/mL (≈ 7.59 µM) in the data set with M. chelonei KMC4201 (setting [18]) and 0.0125 µg/mL (≈ 0.0152 µM) in the data set with M. gordonae KMC2201 (setting [19]).
